Data from patent US20030166139A1 (priority 2001, published 2003).

Test system: not given
Details: in vivo; cited from earlier work

In the case of QS-21 [reference compound], the “safety in human clinical trials” value is listed as “safe”.

Test system: EDIM rotavirus
Set-up: species or system mice
Details: mouse, in vivo

In order of falling “% Protection” value:
1. RLSFQLMRPPNMTP [Peptide #6-14]  98%
2. RNFDTIRLSFQLMRPPNMTPAVTAL [Peptide #6]  85%
3. FNPVILRPNNVEVEFLLNGQVINTYQARF [compound 4]  77%
4. PDAERFSFPRVINSADGA [compound 2]  70%
5. TDLITNYSPSREDNLQRVFTVASIRSMLVK [compound 11]  65%
6. FSFPRVINSADGATTWYFNPVILRPNNVEV [compound 3]  58%
7. HATVLTLRIDSAICESVLADASETMLANV [compound 8]  51%
8. CAINAPANIQQFEHIVQLRRVLTTA [compound 1]  0%
9. MTPAVTALFPNAQPFEHHATVGLTLRIDSA [compound 7]  0%
10. NGQVINTYQARFGTIVARNFDTIRLSFQLM [compound 5]  0%
11. QEYAIPVGPVFPPGMNWTDLITNYSPSRED [compound 10]  0%
12. VLADASETMLANVTSVRQEYAI [compound 9]  0%

In the case of QS-21 [reference compound], the “% Protection from rotavirus shedding” value is reported as 43%.

Same assay, conditions: mouse, in vivo, po

With QS-21 [reference compound] the “% Protection from rotavirus shedding” value was 71%.
